Test results: patent publication US8192962B2, “Processes for detecting toxic substances” (Daikin Industries, Ltd., priority 2001, dated 2012)

System: Stress protein genes
Assay: DNA chip mRNA expression in yeast, stress protein genes (Table 6)
Type: cell-based, Saccharomyces cerevisiae S288C
Summary of the method: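 Measured as treated-to-untreated fluorescence ratio on a full-genome yeast DNA chip. Cells (S288C, YPD, 25° C.) were exposed in log phase for two hours to one chemical, dosed to curb growth without killing.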

Cl[C@H]1[C@H](Cl)[C@@H](Cl)[C@@H](Cl)[C@H](Cl)[C@H]1Cl [(7), γ-hexachlorocyclohexane]
The level of expressed mRNA in the presence of chemical substance/The level of expressed mRNA in the absence of chemical substance (yeast gene YAL005C): 1.2
The level of expressed mRNA in the presence of chemical substance/The level of expressed mRNA in the absence of chemical substance (yeast gene YAL015C): 1.2
The level of expressed mRNA in the presence of chemical substance/The level of expressed mRNA in the absence of chemical substance (yeast gene YBL075C): 1.3
The level of expressed mRNA in the presence of chemical substance/The level of expressed mRNA in the absence of chemical substance (yeast gene YBL093C): 1.3
The level of expressed mRNA in the presence of chemical substance/The level of expressed mRNA in the absence of chemical substance (yeast gene YBR044C): 1.5
The level of expressed mRNA in the presence of chemical substance/The level of expressed mRNA in the absence of chemical substance (yeast gene YBR054W): 0.6
The level of expressed mRNA in the presence of chemical substance/The level of expressed mRNA in the absence of chemical substance (yeast gene YBR067C): 1.1
The level of expressed mRNA in the presence of chemical substance/The level of expressed mRNA in the absence of chemical substance (yeast gene YBR072W): 6.6
The level of expressed mRNA in the presence of chemical substance/The level of expressed mRNA in the absence of chemical substance (yeast gene YBR126C): 2.3
The level of expressed mRNA in the presence of chemical substance/The level of expressed mRNA in the absence of chemical substance (yeast gene YBR169C): 2.5
The level of expressed mRNA in the presence of chemical substance/The level of expressed mRNA in the absence of chemical substance (yeast gene YCL035C): 2.7
The level of expressed mRNA in the presence of chemical substance/The level of expressed mRNA in the absence of chemical substance (yeast gene YCR021C): 0.9
The level of expressed mRNA in the presence of chemical substance/The level of expressed mRNA in the absence of chemical substance (yeast gene YCR060W): 2.4
The level of expressed mRNA in the presence of chemical substance/The level of expressed mRNA in the absence of chemical substance (yeast gene YCR083W): 1.8
The level of expressed mRNA in the presence of chemical substance/The level of expressed mRNA in the absence of chemical substance (yeast gene YDL022W): 1.5
The level of expressed mRNA in the presence of chemical substance/The level of expressed mRNA in the absence of chemical substance (yeast gene YDL025C): 1.0
The level of expressed mRNA in the presence of chemical substance/The level of expressed mRNA in the absence of chemical substance (yeast gene YDR033W): 0.8
The level of expressed mRNA in the presence of chemical substance/The level of expressed mRNA in the absence of chemical substance (yeast gene YDR077W): 0.7
The level of expressed mRNA in the presence of chemical substance/The level of expressed mRNA in the absence of chemical substance (yeast gene YDR098C): 1.5
The level of expressed mRNA in the presence of chemical substance/The level of expressed mRNA in the absence of chemical substance (yeast gene YDR155C): 1.2
The level of expressed mRNA in the presence of chemical substance/The level of expressed mRNA in the absence of chemical substance (yeast gene YDR258C): 3.9
The level of expressed mRNA in the presence of chemical substance/The level of expressed mRNA in the absence of chemical substance (yeast gene YDR293C): 0.9
The level of expressed mRNA in the presence of chemical substance/The level of expressed mRNA in the absence of chemical substance (yeast gene YDR436W): 1.2
The level of expressed mRNA in the presence of chemical substance/The level of expressed mRNA in the absence of chemical substance (yeast gene YDR513W): 1.6
The level of expressed mRNA in the presence of chemical substance/The level of expressed mRNA in the absence of chemical substance (yeast gene YDR519W): 1.9
The level of expressed mRNA in the presence of chemical substance/The level of expressed mRNA in the absence of chemical substance (yeast gene YEL030W): 0.9
The level of expressed mRNA in the presence of chemical substance/The level of expressed mRNA in the absence of chemical substance (yeast gene YEL039C): 0.6
The level of expressed mRNA in the presence of chemical substance/The level of expressed mRNA in the absence of chemical substance (yeast gene YER042W): 1.1
The level of expressed mRNA in the presence of chemical substance/The level of expressed mRNA in the absence of chemical substance (yeast gene YER057C): 1.4
The level of expressed mRNA in the presence of chemical substance/The level of expressed mRNA in the absence of chemical substance (yeast gene YER103W): 1.0
The level of expressed mRNA in the presence of chemical substance/The level of expressed mRNA in the absence of chemical substance (yeast gene YER125W): 0.8
The level of expressed mRNA in the presence of chemical substance/The level of expressed mRNA in the absence of chemical substance (yeast gene YFL014W): 5.5
The level of expressed mRNA in the presence of chemical substance/The level of expressed mRNA in the absence of chemical substance (yeast gene YFL016C): 1.4
The level of expressed mRNA in the presence of chemical substance/The level of expressed mRNA in the absence of chemical substance (yeast gene YFL020C): 1.4
The level of expressed mRNA in the presence of chemical substance/The level of expressed mRNA in the absence of chemical substance (yeast gene YFR052W): 2.2
The level of expressed mRNA in the presence of chemical substance/The level of expressed mRNA in the absence of chemical substance (yeast gene YGL073W): 1.3
The level of expressed mRNA in the presence of chemical substance/The level of expressed mRNA in the absence of chemical substance (yeast gene YGL115W): 1.4
The level of expressed mRNA in the presence of chemical substance/The level of expressed mRNA in the absence of chemical substance (yeast gene YGL181W): 1.3
The level of expressed mRNA in the presence of chemical substance/The level of expressed mRNA in the absence of chemical substance (yeast gene YGR088W): 0.8
The level of expressed mRNA in the presence of chemical substance/The level of expressed mRNA in the absence of chemical substance (yeast gene YHL028W): 2.1
The level of expressed mRNA in the presence of chemical substance/The level of expressed mRNA in the absence of chemical substance (yeast gene YHL046C): 1.3
The level of expressed mRNA in the presence of chemical substance/The level of expressed mRNA in the absence of chemical substance (yeast gene YHR030C): 1.8
The level of expressed mRNA in the presence of chemical substance/The level of expressed mRNA in the absence of chemical substance (yeast gene YHR057C): 1.3
The level of expressed mRNA in the presence of chemical substance/The level of expressed mRNA in the absence of chemical substance (yeast gene YHR104W): 1.5
The level of expressed mRNA in the presence of chemical substance/The level of expressed mRNA in the absence of chemical substance (yeast gene YIL011W): 0.6
The level of expressed mRNA in the presence of chemical substance/The level of expressed mRNA in the absence of chemical substance (yeast gene YIL033C): 1.1
The level of expressed mRNA in the presence of chemical substance/The level of expressed mRNA in the absence of chemical substance (yeast gene YIR037W): 1.8
The level of expressed mRNA in the presence of chemical substance/The level of expressed mRNA in the absence of chemical substance (yeast gene YIR038C): 2.0
The level of expressed mRNA in the presence of chemical substance/The level of expressed mRNA in the absence of chemical substance (yeast gene YJL128C): 1.8
The level of expressed mRNA in the presence of chemical substance/The level of expressed mRNA in the absence of chemical substance (yeast gene YJL158C): 0.4
The level of expressed mRNA in the presence of chemical substance/The level of expressed mRNA in the absence of chemical substance (yeast gene YJL159W): 0.9
The level of expressed mRNA in the presence of chemical substance/The level of expressed mRNA in the absence of chemical substance (yeast gene YJL165C): 0.8
The level of expressed mRNA in the presence of chemical substance/The level of expressed mRNA in the absence of chemical substance (yeast gene YJR045C): 1.0
The level of expressed mRNA in the presence of chemical substance/The level of expressed mRNA in the absence of chemical substance (yeast gene YJR090C): 0.8
The level of expressed mRNA in the presence of chemical substance/The level of expressed mRNA in the absence of chemical substance (yeast gene YKL161C): 2.0
The level of expressed mRNA in the presence of chemical substance/The level of expressed mRNA in the absence of chemical substance (yeast gene YKL163W): 0.9
The level of expressed mRNA in the presence of chemical substance/The level of expressed mRNA in the absence of chemical substance (yeast gene YKL164C): 0.8
The level of expressed mRNA in the presence of chemical substance/The level of expressed mRNA in the absence of chemical substance (yeast gene YKL210W): 1.0
The level of expressed mRNA in the presence of chemical substance/The level of expressed mRNA in the absence of chemical substance (yeast gene YKR053C): 1.7
The level of expressed mRNA in the presence of chemical substance/The level of expressed mRNA in the absence of chemical substance (yeast gene YLL024C): 1.1
The level of expressed mRNA in the presence of chemical substance/The level of expressed mRNA in the absence of chemical substance (yeast gene YLL026W): 2.9
The level of expressed mRNA in the presence of chemical substance/The level of expressed mRNA in the absence of chemical substance (yeast gene YLL039C): 1.1
The level of expressed mRNA in the presence of chemical substance/The level of expressed mRNA in the absence of chemical substance (yeast gene YLL060C): 2.0
The level of expressed mRNA in the presence of chemical substance/The level of expressed mRNA in the absence of chemical substance (yeast gene YLR006C): 1.1
The level of expressed mRNA in the presence of chemical substance/The level of expressed mRNA in the absence of chemical substance (yeast gene YLR109W): 2.6
The level of expressed mRNA in the presence of chemical substance/The level of expressed mRNA in the absence of chemical substance (yeast gene YLR259C): 1.8
The level of expressed mRNA in the presence of chemical substance/The level of expressed mRNA in the absence of chemical substance (yeast gene YML007W): 1.1
The level of expressed mRNA in the presence of chemical substance/The level of expressed mRNA in the absence of chemical substance (yeast gene YML070W): 3.1
The level of expressed mRNA in the presence of chemical substance/The level of expressed mRNA in the absence of chemical substance (yeast gene YMR021C): 2.5
The level of expressed mRNA in the presence of chemical substance/The level of expressed mRNA in the absence of chemical substance (yeast gene YMR173W): 2.4
The level of expressed mRNA in the presence of chemical substance/The level of expressed mRNA in the absence of chemical substance (yeast gene YMR186W): 1.2
The level of expressed mRNA in the presence of chemical substance/The level of expressed mRNA in the absence of chemical substance (yeast gene YNL064C): 0.6
The level of expressed mRNA in the presence of chemical substance/The level of expressed mRNA in the absence of chemical substance (yeast gene YNL160W): 2.4
The level of expressed mRNA in the presence of chemical substance/The level of expressed mRNA in the absence of chemical substance (yeast gene YNL241C): 3.2
The level of expressed mRNA in the presence of chemical substance/The level of expressed mRNA in the absence of chemical substance (yeast gene YNR076W): 1.2
The level of expressed mRNA in the presence of chemical substance/The level of expressed mRNA in the absence of chemical substance (yeast gene YOL064C): 1.2
The level of expressed mRNA in the presence of chemical substance/The level of expressed mRNA in the absence of chemical substance (yeast gene YOL161C): 0.9
The level of expressed mRNA in the presence of chemical substance/The level of expressed mRNA in the absence of chemical substance (yeast gene YOR008C): 0.8
The level of expressed mRNA in the presence of chemical substance/The level of expressed mRNA in the absence of chemical substance (yeast gene YOR009W): 0.6
The level of expressed mRNA in the presence of chemical substance/The level of expressed mRNA in the absence of chemical substance (yeast gene YOR010C): 0.4
The level of expressed mRNA in the presence of chemical substance/The level of expressed mRNA in the absence of chemical substance (yeast gene YOR027W): 1.3
The level of expressed mRNA in the presence of chemical substance/The level of expressed mRNA in the absence of chemical substance (yeast gene YOR208W): 1.1
The level of expressed mRNA in the presence of chemical substance/The level of expressed mRNA in the absence of chemical substance (yeast gene YPL059W): 0.7
The level of expressed mRNA in the presence of chemical substance/The level of expressed mRNA in the absence of chemical substance (yeast gene YPL106C): 1.1
The level of expressed mRNA in the presence of chemical substance/The level of expressed mRNA in the absence of chemical substance (yeast gene YPL140C): 1.4
The level of expressed mRNA in the presence of chemical substance/The level of expressed mRNA in the absence of chemical substance (yeast gene YPL194W): 1.5
The level of expressed mRNA in the presence of chemical substance/The level of expressed mRNA in the absence of chemical substance (yeast gene YPL223C): 1.1
The level of expressed mRNA in the presence of chemical substance/The level of expressed mRNA in the absence of chemical substance (yeast gene YPL240C): 1.4
The level of expressed mRNA in the presence of chemical substance/The level of expressed mRNA in the absence of chemical substance (yeast gene YPR005C): 1.2
The level of expressed mRNA in the presence of chemical substance/The level of expressed mRNA in the absence of chemical substance (yeast gene YPR026W): 1.3
